# Experimental data as given in publication PMC6394990, “Detailed characterization of the solution kinetics and thermodynamics of biotin, biocytin and HABA binding to avidin and streptavidin” (PLoS ONE, 2019).
# “And” between values parts separate entries of the source, which are not always exact repeats. Identical values can stand only once.
# Legend:
# Format in all cases: physicochemical
# [1] = Quantum yields (QY), unbound probe; settings: unbound dye
# Experimental: (§1) The lifetimes (τ), steady state anisotropies (rss), time-resolved anisotropies (rt) and quantum yields (QY) of the complexes (at 20 ± 0.1°C and pH 8) were collected with a dye-labeled B7 probe concentration of 20–40 nM and 1040–2080 nM of either protein (AV or SAV) to ensure that only one binding site in the tetramer was filled with a ligand (AB1 filling model).
# (§2) The QY values were obtained by using a reference fluorophore of known quantum yield and were calculated according to Parker and Rees, where the reference dye was fluorescein in 0.1N sodium hydroxide solution [46]. The emission fluorescence scans were collected from 480 nm to 700 nm with the excitation light set at 460 nm provided by the xenon arc lamp described above. These measurements were made on the AB1 complexes at high protein concentration.
# [2] = target: T1, streptavidin (SAV) (Streptomyces avidinii, UniProt P22629); experiment: Steady-state anisotropy (rss), SAV complex; settings: for Steady State Anisotropy rss: SAV complex (AB1), 20°C; for SAV-increment (%): increase of rss against unbound; for rss, + SAV: steady-state anisotropy
# T1 construct: purchased Sigma Aldrich (St. Louis, MO)
# T1 sequence (P22629 25-183): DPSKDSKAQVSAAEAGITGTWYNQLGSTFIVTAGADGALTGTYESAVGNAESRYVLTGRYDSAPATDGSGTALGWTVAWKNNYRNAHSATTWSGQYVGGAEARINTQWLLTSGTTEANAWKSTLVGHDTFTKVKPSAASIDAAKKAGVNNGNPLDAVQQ
# Experimental: as §1
# (§3) The rss measurements were collected using the Giblin-Parkhurst modification of the Wampler-Desa method as described previously. The fluorescence signal was detected in a model A-1010 Alphascan fluorimeter (Photon Technologies, Inc., Birmingham, NJ) equipped with an R928 PMT (Hamamatsu, Bridgewater, NJ). The excitation was provided by an Ar^+ ion laser (Coherent Innova 70–4 Argon, Santa Clara, CA) at 488 nm and 5–10 mW of power incident on the sample. A photoelastic modulator (PEM-80; HINDS International, Inc., Portland, OR) was placed between the laser source and the sample compartment with a retardation level of 1.22π, and the PEM stress axis orientated 45° with respect to the E vector of the laser beam. Two signals were acquired with the PEM alternating between “on” and “off” positions for 10 seconds and the data fitted to a least squared straight line to minimize noise. A minimum of six of these independent measurements were averaged to acquire the rss values. The fluorimeter G factor was determined using a film polarizer and analyzer with an excitation at 488 nm provided by a xenon arc lamp (model A1010, Photon Technologies Inc, Princeton, NJ). The dissociation reactions of dye-labeled B7 and protein complexes were monitored by fluorescence changes and were also collected in the fluorimeter described above.
# [3] = target: T2, avidin (AV) (Gallus gallus, UniProt P02701); experiment: Steady-state anisotropy (rss), AV complex; settings: for Steady State Anisotropy rss: AV complex (AB1), 20°C; for AV-increment (%): increase of rss against unbound; for rss, + AV: steady-state anisotropy
# T2 construct: purchased Calbiochem (La Jolla, CA)
# T2 sequence (P02701 25-152): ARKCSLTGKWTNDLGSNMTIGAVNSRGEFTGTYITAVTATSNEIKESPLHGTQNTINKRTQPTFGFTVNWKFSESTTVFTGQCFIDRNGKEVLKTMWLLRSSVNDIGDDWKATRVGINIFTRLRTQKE
# Experimental: as §1, §3
# [4] = target: T2, avidin (AV); experiment: Time-resolved anisotropy, cone angle, AV complex; settings: for Cone Angle Ω: AV complex (AB1), 20°C; for W: complex with AV
# Experimental: as §1
# The lifetimes were collected in a FluoTime100 fluorescence spectrometer (PicoQuant, GmbH, Berlin, Germany) with the excitation light source provided by a picosecond pulsed diode laser (PicoQuant, GmbH, Berlin, Germany) at 470 nm and 20 MHz. The emission was collected at 520 nm through a non-fluorescing 520 nm interference filter (Oriel Corp., Stratford, CT) followed by a liquid filter of 1cm path length containing 24 mM acetate buffered dichromate at pH 4, between the sample and detector to eliminate traces of excitation light. The fluorescence decays were fit by a nonlinear least-squares minimization based on the Marquardt algorithm embedded in the Fluofit software (PicoQuant GmbH). Twenty-eight decays were collected per sample, the decays were grouped in four sets, consisting of seven sample decays and one Instrument Response Function, IRF, for deconvolution proposes. The decay sets were globally fitted to mono- or bi-exponential decay models that were discriminated using the statistical parameter χ^2. The rt data were acquired with the fluorimeter described above equipped with a polarizer and an analyzer to acquire the parallel VV(t) and perpendicular VH(t) decays. The PicoQuant G factor was calculated according to: G = ∫HV(t)dt/∫HH(t)dt, where HV(t) and HH(t) were the decays collected with the emission polarizer selecting vertical and horizontal E-vector passing orientations, respectively, and the excitation polarizer set at horizontally position.
# The r¯t values were calculated according to Eq 11 where the pre-exponential “f” corresponds to the slow phase that derives from the lifetime of the global motion (τG) which was fitted within a range of expected correlation time for the complex size; consequently, facilitating resolution of the fast correlation lifetime (τp) and the corresponding pre-exponential (1-f). r¯(t)=(1−f)∙exp(−t/τp)+f∙exp(−t/τG) (11) The f parameter was constrained to the observed rss (Eq 12) where F^(t) (Eq 13) is normalized (α1 + α2 = 1) and derived from the observed fluorescence decays of the complex. rss=0.4∫r¯(t)∙F^(t)dt (12) Where F^(t)=α1exp(−t/τ1)+α2exp(−t/τ2)/α1τ1+α2τ2 (13)
# (§4) In a simple model, the transition moment is assumed to wobble within a cone of semi-apical angle Ω [59], where the cone axis is normal to the surface of a sphere that corresponds to the macromolecule. The angle Ω is calculated from Eq 14.
# [5] = target: T1, streptavidin (SAV); experiment: Time-resolved anisotropy, cone angle, SAV complex; settings: complex with SAV
# Experimental: as §1
# The lifetimes were collected in a FluoTime100 fluorescence spectrometer (PicoQuant, GmbH, Berlin, Germany) with the excitation light source provided by a picosecond pulsed diode laser (PicoQuant, GmbH, Berlin, Germany) at 470 nm and 20 MHz. […] The fluorescence decays were fit by a nonlinear least-squares minimization based on the Marquardt algorithm embedded in the Fluofit software (PicoQuant GmbH). […] The PicoQuant G factor was calculated according to: G = ∫HV(t)dt/∫HH(t)dt, where HV(t) and HH(t) were the decays collected with the emission polarizer selecting vertical and horizontal E-vector passing orientations, respectively, and the excitation polarizer set at horizontally position. […]
# as §4
# [6] = target: T2, avidin (AV); experiment: Quantum yields (QY), AV complex; settings: for Quantum Yield QY: AV complex (AB1); for dQY-AV: fractional change of QY, AV complex against dye
# Experimental: as §1, §2
SMILES,"488, correction, absR/abs [1]",QY [1],QY multiplied by the 488 correction absR/abs [1],Steady State Anisotropy rss [2],SAV-increment (%) [2] [%],"rss, + SAV [2]",Steady State Anisotropy rss [3],AV-increment (%) [3] [%],"rss, + AV [3]",Cone Angle Ω [4] [degrees],W [4],W [5],Quantum Yield QY [6],"488, correction, absR/abs ([6]; complex with AV)",QY ([6]; complex with AV),QY multiplied by the 488 correction absR/abs ([6]; complex with AV),dQY-AV [6]
"O=C(CCCC[C@@H]1SC[C@@H]2NC(=O)N[C@@H]21)NCCNC(=O)c1ccc(-c2c3ccc(=O)cc-3oc3cc(O)ccc23)c(C(=O)O)c1 [BFl, Biotin-4-fluorescein]",1,0.52 and 0.52 ± 0.02,0.52,0.171 ± 0.008,714.3,0.171,0.180 ± 0.003,757.1,0.18,51 ± 2,51,51,0.44 ± 0.01,1.171,0.44 and 0.44 ± 0.01,0.5154,-0.1538
"NC(CCCCNC(=O)CCCC[C@@H]1SC[C@@H]2NC(=O)N[C@@H]21)C(=O)NCCCCCNC(=O)c1ccc(-c2c3cc(F)c(=O)cc-3oc3cc(O)c(F)cc23)c(C(=O)O)c1 (stereo partly drawn) [BcO, Oregon green 488 Biocytin]",–,0.91 and 0.91 ± 0.02,–,0.053 ± 0.005,130.4,0.053,0.187 ± 0.009,713.0,0.187,50 ± 2,50,50,0.62 ± 0.02,–,0.62 and 0.62 ± 0.02,–,-0.3187
